Entries after “also recorded” stand apart in the source; their conditions may differ.
Columns and labels:
PLP induced EAE mice = tested on: PLP induced EAE mice
Procedure: (A-E) SJL mice were immunized with proteolipid peptide (PLP) and pertussis toxin and monitored daily with scoring on the standard clinical EAE scale (0-5). Compounds were administered daily for the duration of the study in saline at 10 mg/kg via intra-peritoneal injection (0.1 ml), starting on the day of the appearance of clinical EAE symptoms (day 10). […] Mean clinical EAE score and standard error of mean (SEM) are shown for each study group.
FIG. 25. […] EAE was induced in mice using PLP and pertussis toxin. […] Prophylactic dosing is defined as administration of compound commenced on the day of PLP injection. Error bars indicate standard deviation of the mean within each group of 8 mice.
(A-F) EAE was induced in mice using PLP and pertussis toxin. […] Error bars indicate standard deviation of the mean within each group of 8 mice.
(A-F) EAE was induced in mice by injecting PLP in complete Freund's adjuvant (CFA) and pertussis toxin, and the animals were scored daily for clinical severity of disease on a scale of 0-5. […] Error bars indicate standard deviation of the mean within each group of 8-10 mice.
10 week old SJL mice were immunized with PLP emulsion and pertusis toxin to induce EAE. […] Compounds were administered daily via intraperitoneal injection of 100 ul in sterile saline at 10 mg/kg alone or in combination with mycophenolate motefil in sterile saline at pH 5 at 20 mg/kg. Compound administration was initiated at disease onset (day 10) while mycophenolate motefil administration was initiated on Day 14. The mice were scored daily on a standard EAE scale of 0-5.
This model is most commonly used to evaluate the potential efficacy of immunomodulatory agents, but can also be used to determine the effectiveness of promyelinating agents that function by enhancing OPC differentiation (M. Fernandez et al., Proc Natl Acad Sci U.S.A, 101, 16363 (2004); X. Lee et al., J Neurosci, 27, 220 (2007); reviewed in R. J. Franklin, C. Ffrench-Constant, Nat Rev Neurosci, 9, 839 (2008)). […] We next evaluated efficacy when the drug is dosed therapeutically, by starting daily injections at the first sign of disease onset.
For the treatment of MS, an OPC differentiation inducing drug would most likely be introduced clinically as part of a combination therapy with an immunosuppressive drug. […] The former reduces T-cell proliferation and alters cytokine expression (A. Noronha, A. Toscas, M. A. Jensen, J Neuroimmunol, 46, 145 (1993); A. Noronha, A. Toscas, M. A. Jensen, Ann Neurol, 27, 207 (1990)), while the latter is an S1P agonist that regulates T-cell trafficking (V. Brinkmann et al., J Biol Chem, 277, 21453 (2002); V. Brinkmann et al., Nat Rev Drug Discov, 9, 883 (2010)).

[1] = tested on: rat optic nerve derived OPCs; experiment: High content imaging assay of OPC differentiation (MBP immunostaining, OPERA); type: cell-based; conditions: OPCs in differentiation medium (2 ng/ml PDGF), 6 days
Procedure: FIG. 1A-C. […] The calculated EC50 values were determined using appropriate Graphpad Prism 5.0 curve fitting software. […] OPCs were plated in 384 well plates at 1000 cells per well in OPC media containing basal PDGF-αα (2 ng/mL) and treated with serial dilutions of compounds. Following six days of compound treatment, cells were fixed and subjected to immunofluorescence analysis using anti-myelin basic protein (MBP) antibody. Image acquisition and quantification of MBP staining was performed using the OPERA imaging system.
FIG. 11A-B. Screen to identify inducers of OPC differentiation. (A) OPCs were maintained as proliferating A2B5-positive cells under basal growth conditions (Neurobasal medium, B27 supplement without Vitamin A, non-essential amino acids, L-Glutamine, 30 ng/ml PDGF). OPCs were plated in basal differentiation media (Neurobasal medium, B27 supplement without Vitamin A, non-essential amino acids, L-Glutamine, 2 ng/ml PDGF), treated with DMSO (<0.1%) or thyroid hormone (1 uM), fixed after 6 days in culture, and stained using antibodies for CNP, O4, or MBP. […] (B) Screen strategy using A2B5 positive OPCs cultured under basal differentiation conditions and treated with compounds for 6 days to identify small molecules that induce the differentiation of OPCs to mature, MBP expressing oligodendrocytes.
FIG. 12A-B. Primary hit confirmation. (A) Dose response assay used to confirm primary screening hits and determine potency (EC50). (EC50) is defined as the concentration that results in a half maximal increase in the percentage of total cells that express MBP as detected by immunostaining. […] Cells were fixed and immunostained using antibodies for MBP. Error bars represent standard deviations from 3 replicate experiments. […]
FIG. 21. […] OPCs were plated in differentiation medium (2 ng/ml PDGF) and treated with various concentrations of compounds for 6 days. Cells were fixed and immunostained for MBP.
A large-scale small molecule screen was conducted to identify small molecules that promote the differentiation of oligodendrocyte precursor cells (OPCs) to a mature myelinating fate. High content imaging was used to detect in-well differentiation of rat optic nerve derived OPCs. Rat optic nerve derived OPCs were expanded en masse in OPC media containing 30 ng/mL PDGFαα. To screen for small molecule inducers of OPC differentiation, OPCs (cultured for fewer than 15 passages) were plated in poly-D-lysine coated 384 well culture plates in OPC Media containing 2 ng/mL PDGFαα and immediately treated with compounds at a final concentration of 6 μM (0.6% DMSO). Compound treated cells were incubated at 37° C., 5% CO2 for 6 days. At the end of 6 days, cells were fixed in 4% paraformaldehyde and subjected to immunofluorescence analysis. Anti-Myelin Basic Protein monoclonal antibody (a.a. 129-138, clone 1 monoclonal antibody, Millipore) (1:1000 dilution) in blocking buffere solution (3% BSA, 0.3% Triton X-100 in PBS) was added to fixed and washed cells and incubated at 4° C. overnight.

muscarinic receptor = experiment: Carbachol co-treatment in compound induced OPC differentiation (MBP staining); type: cell-based, rat; conditions: compounds at EC90 (benztropine 2.3 uM), serial dilutions of carbachol, 6 days
Procedure: Following 6 days of treatment, cells were fixed and stained for MBP. Plates were imaged using the OPERA high content screening system and MBP staining was quantified as described. […] OPCs were plated in 384-well plates at 5000 cells per well in media containing basal PDGF-αα. Cells were equilibrated with Ca^2+ sensitive Fluo-3AM® dye in HBSS for 30 min. […] Ca^2+ influx was immediately measured using the FLIPR TETRA® system.
OPCs express mAChRs, predominantly subtypes M1, M3, and M5 (F. Ragheb et al., J Neurochem, 77, 1396 (2001)). […] Activation of M1 and M3 mAChRs is coupled to downstream signal transduction events through phospholipase C, which results in increased intracellular calcium concentrations (F. Ragheb et al., J Neurochem, 77, 1396 (2001)) (FIG. 23C). M2 and M4 mAChR activation inhibits adenylatecyclase, leading to decreased intracellular cAMP levels (C. C. Felder, FASEB J, 9, 619 (1995); M. Lopez-Ilasaca et al., Science, 275, 394 (1997)). […] Acetylcholine is a known regulator of OPC proliferation and, as such, muscarinic receptor subtypes represent a reasonable class of therapeutic targets for the modulation of OPC proliferation and differentiation (F. De Angelis et al., Dev Neurobiol, (2011)).

OPCs [2] = experiment: Western blot of MBP and MOG in compound treated OPCs; type: cell-based, rat; conditions: OPCs treated 6 days
Excerpt: (§1) FIG. 2A-C. Neurotransmitter receptor modulating agents induce the differentiation of OPCs to a myelinating oligodendrocyte cell fate. (A) Western blot analysis of OPCs treated with compounds at EC90 concentrations for 6 days. Total protein was isolated from cell pellets and probed for myelin basic protein (MBP) and myelin oligodendrocyte glycoprotein (MOG) using specific antibodies. (B-C) Quantitative RT-PCR (qRT-PCR) analysis of OPCs treated with compounds at EC90 concentrations for 6 days. Total RNA was isolated from cell pellets and reverse transcribed. MBP and MOG expression was quantified using specific probes and Taqman-based qRT-PCR. Expression was normalized to the internal controls β-actin and GAPDH. Fold change in gene expression over DMSO treated control cells is plotted for MBP (B) and MOG (C).
FIG. 13. […] After 6 days in culture, cells were analyzed for MBP and MOG expression by Western blot.

OPCs [3] = experiment: Immunofluorescence analysis of mature oligodendrocyte markers (MBP, MOG, CNP, GalC, O1, O4); type: cell-based, rat; conditions: OPCs treated 6 days
Excerpt: FIG. 3. Immunofluorescence analysis of compound treated OPCs using mature oligodendrocyte specific markers. Immunofluorescence staining using specific antibodies for MBP, MOG, and 2′,3′-cyclic nucleotide 3′ phosphodiesterase (CNP). Nuclei were identified using DAPI.
FIG. 4. Immunofluorescence analysis of compound treated OPCs using mature oligodendrocyte specific markers. Immunofluorescence staining using specific antibodies for galactocereberoside (GalC), oligodendrocyte marker O1 (O1) and oligodendrocyte marker O4 (O4). Nuclei were identified using DAPI.
FIG. 14. Compound treatment induces the differentiation of OPCs to mature oligodendrocytes. […] Cells were fixed and immunostained for MBP, MOG, CNP, GalC, O1, or O4.
Immunofluorescence was also used to confirm that the hits were able to induce oligodendrocyte maturation.

OPCs [4] = experiment: qRT-PCR of MBP and MOG expression in compound treated OPCs; type: cell-based, rat; conditions: EC90 concentrations, 6 days
Excerpt: as §1, with “Neurotransmitter receptor modulating agents induce the differentiation of OPCs to a myelinating oligodendrocyte cell fate.” left out

CCCCCCCCc1ccc(CCC(N)(CO)CO)cc1 [FTY720, fingolimod]
maximal observed tolerated dose (PLP induced EAE mice; EAE mice): ~1 mg/kg

CN1[C@@H]2CC[C@H]1C[C@@H](OC(=O)C(CO)c1ccccc1)C2 (stereo partly shown) [atropine]
induction of OPC differentiation (MBP staining) [1]: induce OPC differentiation; also recorded: induced OPC differentiation in a dose dependent manner; also recorded: induced differentiation of OPCs in a dose dependent manner

CN1CCC[C@@H]1CCO[C@](C)(c1ccccc1)c1ccc(Cl)cc1 [clemastine]
effect of carbachol on compound induced OPC differentiation (muscarinic receptor): inhibited; also recorded: dose dependent inhibition
induction of OPC differentiation (MBP staining) [1]: promote OPC differentiation
MBP and MOG expression (Western blot) (OPCs [2]): positive
markers of mature myelinating oligodendrocytes (MBP, MOG, CNP, GalC, O1, O4) by immunofluorescence (OPCs [3]): confirmed the presence of multiple markers of mature myelinating oligodendrocytes
induction of MBP expression (qRT-PCR) over DMSO (OPCs [4]): two-fold
induction of MOG expression (qRT-PCR) over DMSO (OPCs [4]): two-fold

CC(C)[N+]1(C)[C@@H]2CC[C@H]1C[C@@H](OC(=O)C(CO)c1ccccc1)C2 (stereo partly shown) [ipratropium]
induction of OPC differentiation (MBP staining) [1]: induce OPC differentiation; also recorded: induced OPC differentiation in a dose dependent manner; also recorded: induced differentiation of OPCs in a dose dependent manner

CCN(CC)CC#CCOC(=O)C(O)(c1ccccc1)C1CCCCC1 (stereo not shown) [oxybutynin]
induction of OPC differentiation (MBP staining) [1]: induced OPC differentiation in a dose dependent manner; also recorded: induced differentiation of OPCs in a dose dependent manner

CCCOC(C(=O)OC1CCN(C)CC1)(c1ccccc1)c1ccccc1 [propiverine]
induction of OPC differentiation (MBP staining) [1]: induced OPC differentiation in a dose dependent manner; also recorded: induced differentiation of OPCs in a dose dependent manner

CC(C)(C)NCC(O)c1ccc(O)c(CO)c1 (stereo not shown) [salbutamol]
clinical severity versus vehicle, dosing after disease onset (therapeutic mode) (PLP induced EAE mice; compounds 10 mg/kg i.p. daily from first EAE symptoms, mycophenolate 20 mg/kg from day 14): significantly decreased clinical severity in the relapse phase

CN1[C@@H]2C[C@@H](OC(=O)[C@H](CO)c3ccccc3)C[C@H]1[C@@H]1O[C@@H]12 [scopolamine]
induction of OPC differentiation (MBP staining) [1]: induced OPC differentiation in a dose dependent manner; also recorded: induced differentiation of OPCs in a dose dependent manner

N[C@@H](Cc1cc(I)c(Oc2ccc(O)c(I)c2)c(I)c1)C(=O)O [thyroid hormone, triiodothryonine]
induction of OPC differentiation (MBP staining) [1]: induces the differentiation of OPCs into mature oligodendrocytes that express MBP
induction of OPC differentiation (MBP staining) ([1]; listed as T3): results in the differentiation of OPCs to MBP positive oligodendrocytes
markers of mature myelinating oligodendrocytes (MBP, MOG, CNP, GalC, O1, O4) by immunofluorescence (OPCs [3]): expression of mature oligodendrocyte markers

— patent publication US11246873B2, “Directed differentiation of oligodendrocyte precursor cells to a myelinating cell fate” (The Scripps Research Institute, priority 2011, dated 2022)
